Data published in US20240254129A1, “HETEROCYCLIC COMPOUNDS AND USES THEREOF” (Kumquat Biosciences Inc., priority 2021, published 2024).
Where two headings read alike, the source gives them in different places.

Legend:
wildtype Kras / hSOS1 = molecular target: T1, wildtype Kras / hSOS1 (Homo sapiens, UniProt P01116); assay: HTRF assay, wildtype Kras / SOS1 interaction; type: binding; conditions: read-out: IC50 against wildtype Kras
T1 construct: made in house; host or cells: E. coli BL21 (DE3)
Method in brief: (§1)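 Tagged proteins: GST-K-Ras (wt or mutant), His-hSOS1; labels anti-GST-Eu/anti-6His-XL665; HEPES pH 7.4 buffer with DTT, BSA, Igepal. Read ≥10 min post-mix at ex 337 nm; IC50 from ratiometric data, duplicates.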

[1] = molecular target: GST-tagged K-Ras mutant / His-tagged hSOS1 (Homo sapiens, UniProt P01116); assay: HTRF assay, K-Ras mutant / SOS1 interaction; type: binding; conditions: read-out: IC50 against mutant Kras
Method in brief: as §1

[2] = compound nos. 102-196, general methodology of example 5
[3] = compound nos. 201-213, general methodology of example 5

T1 sequence (P01116 1-188 isoform P01116-2): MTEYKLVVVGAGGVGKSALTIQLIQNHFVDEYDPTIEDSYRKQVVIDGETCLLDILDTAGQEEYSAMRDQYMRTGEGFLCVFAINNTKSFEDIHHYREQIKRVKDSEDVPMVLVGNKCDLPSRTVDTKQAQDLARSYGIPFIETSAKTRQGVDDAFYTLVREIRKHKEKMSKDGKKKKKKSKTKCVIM
GST-tagged K-Ras mutant / His-tagged hSOS1, sequence (P01116 whole entry G12D, form open): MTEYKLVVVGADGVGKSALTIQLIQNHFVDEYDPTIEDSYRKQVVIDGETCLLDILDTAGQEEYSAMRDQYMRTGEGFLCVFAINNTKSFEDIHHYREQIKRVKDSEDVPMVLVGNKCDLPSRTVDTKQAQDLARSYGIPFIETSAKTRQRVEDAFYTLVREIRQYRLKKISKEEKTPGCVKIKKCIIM

| Compound | IC50 (wildtype Kras / hSOS1; compound nos. 401-703) | IC50 ([1]; compound nos. 401-703) | further results |
| --- | --- | --- | --- |
| Cc1ccc2oc(N)nc2c1-c1c(Cl)cc2c(N3CCNCC(F)(F)C3)nc(OC[C@@H]3CCCN3C)nc2c1F [Compound 462, 4-(6-chloro-4-(6,6-difluoro-1,4-diazepan-1-yl)-8-fluoro-2-(((S)-1-methylpyrrolidin-2-yl)methoxy)quinazolin-7-yl)-5-methylbenzo[d]oxazol-2-amine] | < 500 nM | < 500 nM |  |
| Nc1nc2c(-c3c(Cl)cc4c(N5CCNCC(F)(F)C5)nc(OCC56CCCN5CCC6)nc4c3F)c(F)ccc2s1 [Compound 633, 4-(6-chloro-4-(6,6-difluoro-1,4-diazepan-1-yl)-8-fluoro-2-((tetrahydro-1H-pyrrol-izin-7a(5H)-yl)methoxy)-quinazolin-7-yl)-5-fluoro-benzo[d]thiazol-2-amine] | > 500 nM | < 500 nM |  |
| N#Cc1c(N)sc2c(F)ccc(-c3c(Cl)cc4c(N5CC6CCC(C5)N6)nc(OC[C@@]56CCCN5C[C@H](F)C6)nc4c3F)c12 [Compound 673, 4-(4-(3,8-diazabicyclo-[3.2.1]octan-3-yl)-6-chloro-8-fluoro-2-(((2R,7aS)-2-fluorotetrahydro-1H-pyrrol-izin-7a(5H)-yl)methoxy)-quinazolin-7-yl)-2-amino-7-fluorobenzo[b]thiophene-3-carbonitrile] | > 500 nM | < 500 nM |  |
| O=C(c1cc(O)cc2ccccc12)N1CCc2nc(OCC34CCCN3CCC4)nc(N3CC4CCC(C3)N4)c2CC1 [Compound 694, (4-(3,8-diazabicyclo[3.2.1]-octan-3-yl)-2-((tetrahydro-1H-pyrrolizin-7a(5H)-yl)-methoxy)-5,6,8,9-tetrahydro-7H-pyrimido[4,5-d]azepin-7-yl)(3-hydroxynaphthalen-1-yl)methanone] | > 500 nM | > 500 nM |  |
| CN(C)CC1(COc2nc(N3CC4CCC(C3)N4)c3cc(Cl)c(-c4ccc(F)c5sc(N)nc45)c(F)c3n2)CC1 [Compound 523, 4-(4-(3,8-diazabicyclo-[3.2.1]octan-3-yl)-6-chloro-2-((1-((dimethylamino)-methyl)cyclopropyl)meth-oxy)-8-fluoroquinazolin-7-yl)-7-fluorobenzo[d]thiazol-2-amine] | > 500 nM | < 500 nM |  |
| CN(C)C1CN(c2nc(N3CCNCC(F)(F)C3)c3cc(Cl)c(-c4cccc5sc(N)nc45)c(F)c3n2)C1 [Compound 135, 4-(6-chloro-4-(6,6-difluoro-1,4-diazepan-1-yl)-2-(3-(dimethylamino)azetidin-1-yl)-8-fluoroquinazolin-7-yl)-benzo[d]thiazol-2-amine] |  |  | IC50 (wildtype Kras / hSOS1; [2]): > 500 nM; IC50 [1, 2]: > 500 nM |
| Fc1c(-c2ccccc2-c2ccccc2)c(Cl)cc2c(N3CCCCCC3)nc(OCC34CCCN3CCC4)nc12 [Compound 603, 7-([1,1′-biphenyl]-2-yl)-4-(azepan-1-yl)-6-chloro-8-fluoro-2-((tetrahydro-1H-pyrrolizin-7a(5H)-yl)meth-oxy)quinazoline] | > 500 nM | > 500 nM |  |
| Oc1cc(-c2ccc3c(N4CC5CCC(C4)N5)nc(OC[C@@]45CCCN4C[C@H](F)C5)nc3c2F)c2ccccc2c1 [Compound 209, 4-(4-((1R,5S)-3,8-diaza-bicyclo[3.2.1]octan-3-yl)-8-fluoro-2-(((2R,7aS)-2-fluoro-tetrahydro-1H-pyrrolizin-7a(5H)-yl)methoxy)quin-azolin-7-yl)naphthalen-2-ol] |  |  | IC50 (wildtype Kras / hSOS1; [3]): < 1500 nM; IC50 [1, 3]: < 1500 nM |
| Cc1ccc(C#N)cc1-c1c(Cl)cc2c(N3CC4CCC(C3)N4)nc(OCC34CCCN3CCC4)nc2c1F [Compound 510, 3-(4-(3,8-diazabicyclo-[3.2.1]octan-3-yl)-6-chloro-8-fluoro-2-((tetrahydro-1H-pyrrolizin-7a(5H)-yl)meth-oxy)quinazolin-7-yl)-4-methylbenzonitrile] | > 500 nM | > 500 nM |  |
| CNCCCN1CCCN(c2nc(OCC34CCCN3CCC4)nc3c(F)c(-c4ccc(F)c5sc(N)nc45)c(Cl)cc23)CC1 [Compound 640, 4-(6-chloro-8-fluoro-4-(4-(3-(methylamino)propyl)-1,4-diazepan-1-yl)-2-((tetrahydro-1H-pyrrolizin-7a(5H)-yl)methoxy)quin-azolin-7-yl)-7-fluorobenzo-[d]thiazol-2-amine] | > 500 nM | < 500 nM |  |
| Cc1ccnc(C(C)C)c1-n1c(=O)nc(N2CCNCC(F)(F)C2)c2cc(F)c(-c3cc(O)cc4ccccc34)nc21 [Compound 196, 4-(6,6-difluoro-1,4-diazepan-1-yl)-6-fluoro-7-(3-hydroxynaphthalen-1-yl)-1-(2-isopropyl-4-methyl-pyridin-3-yl)pyrido[2,3-d]-pyrimidin-2(1H)-one] |  |  | IC50 (wildtype Kras / hSOS1; [2]): > 500 nM; IC50 [1, 2]: > 500 nM |
| N#CN1CCN(c2nc(OCC34CCCN3CCC4)nc3c(F)c(-c4ccc(F)c5sc(N)nc45)c(Cl)cc23)CC(F)(F)C1 [Compound 551, 4-(7-(2-amino-7-fluorobenzo[d]thiazol-4-yl)-6-chloro-8-fluoro-2-((tetrahydro-1H-pyrrolizin-7a(5H)-yl)methoxy)quinazolin-4-yl)-6,6-difluoro-1,4-diazepane-1-carbonitrile] | > 500 nM | < 500 nM |  |
| Nc1nc2c(-c3c(Cl)cc4c(N5CC6CCC(C5)N6)nc(OC[C@@]56CCCN5C[C@H](F)C6)nc4c3F)cccc2o1 [Compound 588, 4-(4-(3,8-diazabicyclo-[3.2.1]-octan-3-yl)-6-chloro-8-fluoro-2-(((2R,7aS)-2-fluorotetrahydro-1H-pyrrol-izin-7a(5H)-yl)methoxy)-quinazolin-7-yl)benzo[d]-oxazol-2-amine] | > 500 nM | < 500 nM |  |
| Nc1cccc(-c2ccc(O)cc2-c2c(Cl)cc3c(N4CC5CCC(C4)N5)nc(OCC45CCCN4CCC5)nc3c2F)c1 [Compound 652, 2-(4-(3,8-diazabicyclo-[3.2.1]octan-3-yl)-6-chloro-8-fluoro-2-((tetrahydro-1H-pyrrolizin-7a(5H)-yl)meth-oxy)quinazolin-7-yl)-3′-amino-[1,1′-biphenyl]-4-ol] | > 500 nM | > 500 nM |  |
| Cc1ncc(COc2nc(N3CCCCCC3)c3cc(Cl)c(-c4cccc5sc(N)nc45)c(F)c3n2)cn1 [Compound 505, 4-(4-(azepan-1-yl)-6-chloro-8-fluoro-2-((2-methylpyr-imidin-5-yl)methoxy)quin-azolin-7-yl)benzo[d]thiazol-2-amine] | > 500 nM | > 500 nM |  |
| Nc1nc2c(-c3c(Cl)cc4c(N5CCCCCC5)nc(OC[C@@]56CCCN5C[C@H](F)C6)nc4c3F)ccc(F)c2s1 [Compound 499, 4-(4-(azepan-1-yl)-6-chloro-8-fluoro-2-(((2R,7aS)-2-fluorotetrahydro-1H-pyrrol-izin-7a(5H)-yl)methoxy)-quinazolin-7-yl)-7-fluoro-benzo[d]thiazol-2-amine] | < 500 nM | < 500 nM |  |
| Nc1nc2c(-c3c(Cl)cc4c(N5CC6CCC(CO)(C5)N6)nc(OC[C@@]56CCCN5C[C@H](F)C6)nc4c3F)ccc(F)c2s1 (stereo partly drawn) [Compound 518, (3-(7-(2-amino-7-fluoroben-zo-[d]thiazol-4-yl)-6-chloro-8-fluoro-2-(((2R,7aS)-2-fluorotetrahydro-1H-pyrrol-izin-7a(5H)-yl)methoxy)-quinazolin-4-yl)-3,8-diaza-bicyclo[3.2.1]octan-1-yl)-methanol] | > 500 nM | < 500 nM |  |
| CNCCN1CCCN(c2nc(OCC34CCCN3CCC4)nc3c(F)c(-c4ccc(F)c5sc(N)nc45)c(Cl)cc23)CC1 [Compound 575, 4-(6-chloro-8-fluoro-4-(4-(2-(methylamino)ethyl)-1,4-diazepan-1-yl)-2-((tetra-hydro-1H-pyrrolizin-7a(5H)-yl)methoxy)quinazolin-7-yl)-7-fluorobenzo[d]thiazol-2-amine] | > 500 nM | < 500 nM |  |
| Nc1nc2c(-c3cc4c(=O)n(CCN5CCCC5)nc(N5CCCOCC5)c4cc3Cl)ccc(F)c2s1 [Compound 484, 7-(2-amino-7-fluorobenzo-[d]thiazol-4-yl)-6-chloro-4-(1,4-oxazepan-4-yl)-2-(2-(pyrrolidin-1-yl)ethyl)phthal-azin-1(2H)-one] | < 500 nM | > 500 nM |  |
| COc1nc2c(N3C[C@H]4CC[C@@H](C3)N4)nc(OCC34CCCN3CCC4)nc2cc1-c1cc(O)cc2ccccc12 [Compound 545, 4-(4-((1R,5S)-3,8-diazabicyclo[3.2.1]octan-3-yl)-6-methoxy-2-((tetrahydro-1H-pyrrolizin-7a(5H)-yl)methoxy)pyrido[3,2-d]pyrimidin-7-yl)naphthalen-2-ol] | > 500 nM | > 500 nM |  |
| CN1CCC[C@H]1COc1nc(N2CCCC(n3ccnc3)CC2)c2cc(Cl)c(-c3cccc4sc(N)nc34)c(F)c2n1 (stereo partly drawn) [Compound 490, 4-(4-(4-(1H-imidazol-1-yl)-azepan-1-yl)-6-chloro-8-fluoro-2-(((S)-1-methylpyr-rolidin-2-yl)methoxy)quin-azolin-7-yl)benzo[d]thiazol-2-amine] | < 500 nM | > 500 nM |  |
